The source of these data is US8642609B2, “Modulators of ATP-binding cassette transporters” (Vertex Pharmaceuticals Incorporated, priority 2003, dated 2014).

This experiment has as its target T1, ΔF508-CFTR (Homo sapiens, UniProt P13569, DEL508-508).
T1 construct: expressed in transfected cells
In words: Membrane potential optical assay (FRET/VIPR), identification of correction compounds. In kind it is cell-based. The method, boiled down: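 Corrector screen: FRET voltage-sensor dyes (CC2-DMPE donor, DiSBAC2(3)) report Cl^− efflux-driven depolarization after 10 μM forskolin and 20 μM genistein in Cl^−-free medium. Beforehand, ΔF508-CFTR NIH3T3 fibroblasts received compound for 16 hrs at 37° C; temperature-corrected cells (27° C) served as positive control.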

T1 sequence (P13569 with tags, fused parts or gaps DEL508-508): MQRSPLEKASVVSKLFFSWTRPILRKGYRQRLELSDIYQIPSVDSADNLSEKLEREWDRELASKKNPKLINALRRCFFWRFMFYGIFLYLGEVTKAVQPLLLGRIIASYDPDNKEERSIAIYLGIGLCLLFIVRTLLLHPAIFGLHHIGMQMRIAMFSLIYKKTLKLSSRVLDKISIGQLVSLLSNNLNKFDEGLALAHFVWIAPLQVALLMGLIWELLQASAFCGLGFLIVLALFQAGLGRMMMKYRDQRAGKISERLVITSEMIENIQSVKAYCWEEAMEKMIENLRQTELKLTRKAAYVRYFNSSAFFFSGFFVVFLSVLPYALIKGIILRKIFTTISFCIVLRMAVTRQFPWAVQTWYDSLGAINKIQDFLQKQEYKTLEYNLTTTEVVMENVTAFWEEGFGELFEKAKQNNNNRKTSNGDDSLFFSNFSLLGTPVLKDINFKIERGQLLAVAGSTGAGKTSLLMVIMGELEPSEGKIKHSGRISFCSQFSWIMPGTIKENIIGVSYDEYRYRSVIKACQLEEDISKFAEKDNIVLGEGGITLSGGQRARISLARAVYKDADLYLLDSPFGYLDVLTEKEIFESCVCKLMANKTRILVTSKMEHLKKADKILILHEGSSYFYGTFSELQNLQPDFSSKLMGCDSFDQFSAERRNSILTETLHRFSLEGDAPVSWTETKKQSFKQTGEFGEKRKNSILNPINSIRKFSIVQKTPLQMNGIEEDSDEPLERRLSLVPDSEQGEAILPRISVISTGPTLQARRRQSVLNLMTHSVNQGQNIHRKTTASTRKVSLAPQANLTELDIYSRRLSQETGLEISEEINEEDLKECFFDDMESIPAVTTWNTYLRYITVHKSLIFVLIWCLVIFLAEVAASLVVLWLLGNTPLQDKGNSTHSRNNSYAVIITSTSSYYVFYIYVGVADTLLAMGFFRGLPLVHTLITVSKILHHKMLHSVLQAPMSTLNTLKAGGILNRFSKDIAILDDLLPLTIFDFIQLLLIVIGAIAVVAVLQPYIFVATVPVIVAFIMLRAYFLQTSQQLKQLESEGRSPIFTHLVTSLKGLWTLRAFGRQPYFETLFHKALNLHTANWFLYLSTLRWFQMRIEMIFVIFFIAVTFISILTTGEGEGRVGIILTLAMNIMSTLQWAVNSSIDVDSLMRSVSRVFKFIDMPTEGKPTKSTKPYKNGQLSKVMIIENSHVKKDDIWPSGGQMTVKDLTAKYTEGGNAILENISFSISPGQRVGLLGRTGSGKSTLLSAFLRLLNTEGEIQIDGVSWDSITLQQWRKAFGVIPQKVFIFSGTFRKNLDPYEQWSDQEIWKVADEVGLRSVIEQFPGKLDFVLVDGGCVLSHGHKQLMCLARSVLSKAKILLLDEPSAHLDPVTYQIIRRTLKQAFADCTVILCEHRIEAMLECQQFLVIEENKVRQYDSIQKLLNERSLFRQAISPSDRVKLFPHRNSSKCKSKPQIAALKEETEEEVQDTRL

Turning to `COc1ccc(S(=O)(=O)N2CCN(C(C)c3nc(N4CC5CCC4C5)c4ccccc4n3)CC2)cc1` (stereo not shown) [compound 361], the EC50 was below 10 µM. In addition, the Emax (relative efficacy) was above 100%.
As for `CCOC(=O)c1cnc(C(C)N2CCN(S(=O)(=O)c3ccc(OC)cc3)CC2)nc1OC1CCCC1` (stereo not shown) [compound 362], the EC50 is below 10 µM. Besides, the maximal response (Emax) (relative efficacy) is above 100%.
On the same counts, the results for `COc1ccc(S(=O)(=O)N2CCN(C(C)c3nc(N4CCC(CCO)CC4)c4ccccc4n3)CC2)cc1` (stereo not shown) [compound 363] are 10 to 25 µM and above 100%.
In the case of `COc1ccc(S(=O)(=O)N2CCN(C(C)c3nc(N4CCC(C(N)=O)CC4)c4ccccc4n3)CC2)cc1` (stereo not shown) [compound 364], the EC50 was 25 to 60 µM. Also, the maximum response (Emax) (relative efficacy) was 25 to 100%.
Turning to `CCCC1CCN(c2nc(C(C)N3CCN(S(=O)(=O)c4ccc(OC)cc4)CC3)nc3ccccc23)CC1` (stereo not shown) [compound 365], the EC50 is below 10 µM. Also, under “relative efficacy”, the Emax is above 100%.
The corresponding values for `COc1ccc(S(=O)(=O)N2CCN(C(C)c3nc(Nc4ccccc4)c4ccccc4n3)CC2)cc1` (stereo not shown) [compound 366] are below 10 µM and 25 to 100%.
The corresponding values for `COc1ccc(S(=O)(=O)N2CCN(C(C)c3nc(NCc4ccccc4)c4ccccc4n3)CC2)cc1` (stereo not shown) [compound 367] are below 10 µM and 25 to 100%.
The corresponding values for `COc1ccc(S(=O)(=O)N2CCN(C(C)c3nc(N(C)Cc4ccccc4)c4ccccc4n3)CC2)cc1` (stereo not shown) [compound 368] are below 10 µM and above 100%.
With `COc1ccc(S(=O)(=O)N2CCN(C(C)c3nc(N4CCN(C(C)=O)CC4)c4ccccc4n3)CC2)cc1` (stereo not shown) [compound 369], the EC50 is 25 to 60 µM. Also, the Emax (relative efficacy) was in the range of 25 to 100%.
As for `COc1ccc(S(=O)(=O)N2CCN(C(C)c3nc(N4CCC(C(=O)O)CC4)c4ccccc4n3)CC2)cc1` (stereo not shown) [compound 370], the 50% effective concentration (EC50) was 25 to 60 µM. Moreover, the maximal effect (Emax) (relative efficacy) is below 25%.
On the same counts, the results for `COc1ccc(S(=O)(=O)N2CCN(C(C)c3nc(N4CCCCC4)c4cc(F)ccc4n3)CC2)cc1` (stereo not shown) [compound 371] are below 10 µM and above 100%.
Consider `COc1ccc(S(=O)(=O)N2CCN(C(C)c3nc(N4CCC(C)CC4)c4cc(F)ccc4n3)CC2)cc1` (stereo not shown) [compound 372], for which the EC50 lay within 10 to 25 µM. Further, the maximum response (Emax) (relative efficacy) is above 100%.
Turning to `COc1ccc(S(=O)(=O)N2CCN(C(C)c3nc(NC4CCCCC4)c4cc(F)ccc4n3)CC2)cc1` (stereo not shown) [compound 373], the EC50 is 10 to 25 µM. The Emax (relative efficacy) was 25 to 100%.
For `COc1ccc(S(=O)(=O)N2CCN(C(C)c3nc(OC4CCCCC4)c4cc(F)ccc4n3)CC2)cc1` (stereo not shown) [compound 374], the half-maximal effective concentration (EC50) is below 10 µM. Besides, the Emax (relative efficacy) was in the range of 25 to 100%.
As for `COc1ccc(S(=O)(=O)N2CCN(C(C)c3nc(OC4CCCC4)c4cc(F)ccc4n3)CC2)cc1` (stereo not shown) [compound 375], the EC50 was below 10 µM. The Emax (relative efficacy) is above 100%.
On to `COc1ccc(S(=O)(=O)N2CCN(C(C)c3ncc(-c4ccccc4)c(N4CCCCC4)n3)CC2)cc1` (stereo not shown) [compound 376], for which the EC50 is below 10 µM. For the setting “relative efficacy”, the Emax lay in the range of 25 to 100%.
For `COc1ccc(S(=O)(=O)N2CCN(C(C)c3nc4ccc(F)cc4c(=O)[nH]3)CC2)cc1` (stereo not shown) [compound 377], the concentration for a half-maximal effect (EC50) lay within 25 to 60 µM. In addition, the Emax (relative efficacy) was in the range of 25 to 100%.
Consider `COc1ccc(S(=O)(=O)N2CCN(C(C)c3ncc(Br)c(=O)[nH]3)CC2)cc1` (stereo not shown) [compound 378], for which the EC50 lay in the range of 25 to 60 µM. The maximal effect (Emax) (relative efficacy) was below 25%.
As for `C[C@H](c1nc(N2CCCCC2)c2ccccc2n1)N1CCN(S(=O)(=O)c2ccc(Cl)cc2)CC1` [compound 379], the concentration giving a half-maximal response (EC50) is below 10 µM. Besides, the Emax (relative efficacy) was above 100%.
Take `C[C@@H](c1nc(N2CCCCC2)c2ccccc2n1)N1CCN(S(=O)(=O)c2ccc(Cl)cc2)CC1` [compound 380]: the concentration for a half-maximal effect (EC50) was below 10 µM. Further, the Emax (relative efficacy) is above 100%.
For the compound `COc1ccc(S(=O)(=O)N2CCN(C(C)c3ncc(Br)c(OC4CCCC4)n3)CC2)cc1` (stereo not shown) [compound 381], the EC50 was below 10 µM. In addition, the Emax (relative efficacy) is above 100%.
In the case of `COc1ccc(S(=O)(=O)N2CCN(C(C)c3nccc(OC4CCCC4)n3)CC2)cc1` (stereo not shown) [compound 382], the EC50 was 10 to 25 µM. The maximal effect (Emax) (relative efficacy) lay in the range of 25 to 100%.
Turning to `COc1ccc(S(=O)(=O)N2CCN(Cc3nc4ccccc4c(=O)[nH]3)CC2)cc1` [compound 383], the EC50 was 25 to 60 µM. For the same compound, the maximal response (Emax) (relative efficacy) was below 25%.
For `COc1ccc(S(=O)(=O)N2CCN(Cc3nc(N4CCCCC4)c4ccccc4n3)CC2)cc1` [compound 384], the EC50 fell in the range of 10 to 25 µM. Also, the Emax (relative efficacy) was above 100%.
With `COc1ccc(S(=O)(=O)N2CCN(Cc3nc(OC4CCCCC4)c4ccccc4n3)CC2)cc1` [compound 385], the EC50 is below 10 µM. Under “relative efficacy”, the Emax was above 100%.
With `COc1ccc(S(=O)(=O)N2CCN(Cc3nc(OC4CCCC4)c4ccccc4n3)CC2)cc1` [compound 386], the EC50 is below 10 µM. In addition, the maximum response (Emax) (relative efficacy) was above 100%.
Regarding `COc1ccc(S(=O)(=O)N2CCN(C3(c4nc(N5CCCCC5)c5ccccc5n4)CC3)CC2)cc1` [compound 387], the EC50 is below 10 µM. Besides, the Emax (relative efficacy) was above 100%.
As for `COc1ccc(S(=O)(=O)N2CCN(C(C)c3nc(N4CCCc5ccccc54)c4ccccc4n3)CC2)cc1` (stereo not shown) [compound 388], the EC50 was below 10 µM. Besides, for the setting “relative efficacy”, the Emax is above 100%.
As for `COc1ccc(S(=O)(=O)N2CCN(C(C)c3nc(N4CCC(Cc5ccccc5)CC4)c4ccccc4n3)CC2)cc1` (stereo not shown) [compound 389], the EC50 is below 10 µM. The maximal response (Emax) (relative efficacy) was above 100%.
For `COc1ccc(S(=O)(=O)N2CCN(C(C)c3nc(N4CCN(c5ccccc5)CC4)c4ccccc4n3)CC2)cc1` (stereo not shown) [compound 390], the concentration giving a half-maximal response (EC50) was below 10 µM. Besides, the Emax (relative efficacy) is above 100%.
As to `COc1ccc(S(=O)(=O)N2CCN(C(C)c3nc(N4CC=CC4)c4ccccc4n3)CC2)cc1` (stereo not shown) [compound 391], the EC50 lay within 10 to 25 µM. The maximal response (Emax) (relative efficacy) was above 100%.
`COc1ccc(S(=O)(=O)N2CCN(C(C)c3nc(N4CC=CCC4)c4ccccc4n3)CC2)cc1` (stereo not shown) [compound 392]: the 50% effective concentration (EC50) was below 10 µM. Also, the Emax (relative efficacy) was above 100%.
On the same counts, the results for `COc1ccc(S(=O)(=O)N2CCN(C(C)c3nc(N4CCSC4)c4ccccc4n3)CC2)cc1` (stereo not shown) [compound 393] are 10 to 25 µM and above 100%.
The corresponding values for `COc1ccc(S(=O)(=O)N2CCN(C(C)c3nc(N4CC[C@@H](NC(C)=O)C4)c4ccccc4n3)CC2)cc1` (stereo partly shown) [compound 394] are 25 to 60 µM and 25 to 100%.
Turning to `COc1ccc(S(=O)(=O)N2CCN(C(C)c3nc(N(C)CC4OCCO4)c4ccccc4n3)CC2)cc1` (stereo not shown) [compound 395], the concentration for a half-maximal effect (EC50) fell in the range of 10 to 25 µM. In addition, the Emax (relative efficacy) is 25 to 100%.
Consider `COc1ccc(S(=O)(=O)N2CCN(C(C)c3nc(OC4CCCCC4)c4nccnc4n3)CC2)cc1` (stereo not shown) [compound 396], for which the EC50 lay within 10 to 25 µM. Under “relative efficacy”, the Emax was above 100%.
On to `COc1ccc(S(=O)(=O)N2CCN(C(C)c3nc(OC4CCCC4)c4ccccc4n3)CC2)cc1` (stereo not shown) [compound 397], for which the concentration giving a half-maximal response (EC50) lay in the range of 10 to 25 µM. Under “relative efficacy”, the “% Efficacy” value was “++ (“++” means between 25% to 100%)”.
As to `COc1ccc(S(=O)(=O)N2CCN(C(C)c3nc(OC4CCC4)c4ccccc4n3)CC2)cc1` (stereo not shown) [compound 398], the EC50 is below 10 µM. Further, the Emax (relative efficacy) is above 100%.
With `COc1ccc(S(=O)(=O)N2CCN(C(C)c3nc(OC4CCC(C)CC4)c4ccccc4n3)CC2)cc1` (stereo not shown) [compound 399], the EC50 was below 10 µM. Under “relative efficacy”, the Emax lay within 25 to 100%.
The corresponding values for `COc1ccc(S(=O)(=O)N2CCN(C(C)c3nc(OC4CCC5CC4C5)c4ccccc4n3)CC2)cc1` (stereo not shown) [compound 400] are below 10 µM and above 100%.
On the same counts, the results for `COc1ccc(S(=O)(=O)N2CCN(C(=O)c3nc(N4CCCCC4)c4ccccc4n3)CC2)cc1` [compound 402] are 25 to 60 µM and below 25%.
`COc1ccc(S(=O)(=O)N2CCC(C(C)c3nc(OC4CCCC4)c4ccccc4n3)CC2)cc1` (stereo not shown) [compound 403]: the EC50 is below 10 µM. Further, the Emax (relative efficacy) was above 100%.
With `COc1ccc(S(=O)(=O)N2CCC(C(C)c3nc(OC4CCCCC4)c4ccccc4n3)CC2)cc1` (stereo not shown) [compound 404], the EC50 was below 10 µM. Further, the Emax (relative efficacy) was above 100%.
Take `COc1ccc(S(=O)(=O)N2CCC(C(C)c3nc4ccccc4c(=O)[nH]3)CC2)cc1` (stereo not shown) [compound 405]: the EC50 lay within 10 to 25 µM. In addition, for the setting “relative efficacy”, the Emax is 25 to 100%.

One may read the EC50 as the concentration at which the effect is half-maximal. As a reminder, the Emax is the maximal effect, on the per cent scale that the assay sets.
